# From patent EP0080682A1, “Bisisoquinolinium compound, pharmaceutical compositions and synthesis” (THE WELLCOME FOUNDATION LIMITED, priority 1981, dated 1983)
# Like-named read-outs stand apart in the source and are kept apart here.
# What was measured:
# [1] = tested on: isometric twitch of the tibialis anterior muscle; assay: Neuromuscular block after intravenous administration: isometric twitch of the tibialis anterior muscle in response to peroneal nerve stimulation, Rhesus monkeys; assay type: in vivo; settings: Rhesus Monkey
# Source text: (§1) Trans, trans-2,2'-(trimethylenebis(carbonyloxytri- methylene))bis(1,2,3,4-tetrahydro-6,7,8-trimethoxy-2-methyl-1-(3,4,5-trimethoxybenzyl)isoquinolinium) dichloride (prepared as in Example 3) was examined by intravenous administration to cats and Rhesus monkeys, maintained by artificial ventilation and prepared for recording the isometric twitch of the tibialis anterior muscle in response to stimulation of peroneal nerve.
# [2] = tested on: isometric twitch of the tibialis anterior muscle; assay: Neuromuscular block after intravenous administration: isometric twitch of the tibialis anterior muscle in response to peroneal nerve stimulation, cats; assay type: in vivo; settings: Cat
# Source text: as §1
# [3] = cited from earlier work
# [4] = intravenous, time from injection to 95% recovery
structure (smiles),measurement,setting,value
"COc1cc(CC2c3c(cc(OC)c(OC)c3OC)CC[N+]2(C)CCCOC(=O)CCCC(=O)OCCC[N+]2(C)CCc3cc(OC)c(OC)c(OC)c3C2Cc2cc(OC)c(OC)c(OC)c2)cc(OC)c1OC (stereo not drawn) [Example 1, trans, trans-2,2'-(trimethylenebis(carbonyloxytrimethy-lene))bis(1,2,3,4-tetrahydro-6,7,8-trimethoxy-2-methyl-1-(3,4,5-trimethoxybenzyl)isoquinolinium) dichloride]",ED95,"[1]; Macaca mulatta, intravenous administration, artificial ventilation, 4 animals",0.05 mg/kg
same,Duration,[1]; [4],≃15^+ Minutes
same,Duration,[2]; [4],≃25 Minutes
same,ED95,"[2]; Felis catus, intravenous administration, artificial ventilation, 2 animals",0.03 mg/kg
CC(=O)O[C@H]1C[C@@H]2CC[C@@H]3[C@H](CC[C@@]4(C)[C@H]3C[C@H]([N+]3(C)CCCCC3)[C@@H]4OC(C)=O)[C@@]2(C)C[C@@H]1[N+]1(C)CCCCC1 [pancuronium],dose of agents most widely used clinically,[3]; in vivo,0.06 to 0.08 mg/kg
COc1cc2c3cc1Oc1cc(ccc1O)C[C@@H]1c4c(cc(OC)c(O)c4Oc4ccc(cc4)C[C@@H]3N(C)CC2)CC[N+]1(C)C [d-tubocurarine],dose of agents most widely used clinically,"[3]; clinical use, compared with intravenous paralysing dose of compounds of formula (I)",0.4 to 0.6 mg/kg
